Measured values: the CATMoS acute toxicity set (Mansouri et al. 2021)

Assay: GHS categories as the set defines them, by LD50: 1 up to 5, 2 up to 50, 3 up to 300, 4 up to 2000, 5 above 2000 mg/kg
Details: rat; in vivo; po

CC[C@H]1C[C@H]2[C@@H]3CCC4=CC(=O)CC[C@@H]4[C@H]3CC[C@]2(C)[C@H]1OC(C)=O
GHS category: 5

CCOC(=O)CC(=O)N1CCSC1COc1ccccc1OC (stereo unspecified)
GHS category: 5

CCCCC1COCC(C)C1OC(C)=O (stereo unspecified)
GHS category: 5

O=C(c1ccc(Oc2ccccc2)cc1)c1ccc(C(=O)c2ccc(Oc3ccccc3)cc2)cc1
GHS category: 5

CCC=CCCOC(=O)C(C)C
GHS category: 5

Cc1c(N)nc(C(CC(N)=O)NCC(N)C(N)=O)nc1C(=O)NC(C(=O)NC(C)C(O)C(C)C(=O)NC(C(=O)NCCc1nc(-c2nc(C(=O)NCCCN[C@@H](C)c3ccccc3)cs2)cs1)C(C)O)C(O[C@@H]1O[C@@H](CO)[C@@H](O)[C@H](O)[C@@H]1O[C@H]1O[C@H](CO)[C@@H](O)[C@H](OC(N)=O)[C@@H]1O)c1c[nH]cn1 (stereo partly specified)
GHS category: 5

O=C1C=CC(=O)N1c1ccc(SSc2ccc(N3C(=O)C=CC3=O)cc2)cc1
GHS category: 5

C=C(C=CCC(O)C(O)C(O)CC=CC=CC(O)CC1OC(CC(O)C(O)CC2OC(C(O)C(O)CCC(O)C=CC(C)C(O)CC3(O)OC(CC(O)CCCCCCCC45CC(C)CC(C)(O4)C(CC(C)CCCCCC(O)C(O)C(O)C(O)C(O)C4OC(CC(O)C(O)C(C)=CC(O)CC(C)C(O)C(=O)NC=CC(=O)NCCCO)C(O)C(O)C4O)O5)C(O)C(O)C3O)CC(O)C2O)C(O)C(O)C1O)CCC(O)C(O)C(O)C(C)CC1OC(C=CC(O)C(O)CC2CC3CC(O2)C(CCC2OC(CN)CC2O)O3)C(O)C(O)C1O (stereo unspecified)
GHS category: 1

O=C(Nc1ccc(Cc2ccc(NC(=O)NC3CCCCC3)cc2)cc1)NC1CCCCC1
GHS category: 5

CCOc1ccccc1C(=N)N
GHS category: 4

Cn1c(=O)c2c([nH]c(=O)n2C)n(C)c1=O
GHS category: 5

O=C(O)CCC(=O)O
GHS category: 5

CC(c1ccccc1)C1Nc2cc(Cl)c(S(N)(=O)=O)cc2S(=O)(=O)N1 (stereo unspecified)
GHS category: 5

NS(=O)(=O)c1cc2c(cc1Cl)NC(C1CC3C=CC1C3)NS2(=O)=O (stereo unspecified)
GHS category: 5

CCCCCCCCCCCCCCCCCCOC(=O)CCSCCC(=O)OCCCCCCCCCCCCCCCCCC
GHS category: 5

CC(C)OP(=O)(O)Oc1ccccc1
GHS category: 5

COc1cc2nc(N3CCN(C(=O)C4COc5ccccc5O4)CC3)nc(N)c2cc1OC (stereo unspecified)
GHS category: 5

CC1=C(C(=O)O)N2C(=O)[C@@H](NC(=O)C(N)C3=CCC=CC3)[C@H]2SC1 (stereo partly specified)
GHS category: 5

O=C(NNc1cccc(C(F)(F)F)c1)c1cccnc1Cl
GHS category: 4

CC(C)CCCCCCCCOCCCNCCC#N
GHS category: 5

O=c1c2ccccc2[nH]c2cc3c(=O)c4ccccc4[nH]c3cc12
GHS category: 5

C[Si](C)(C)O[Si](C)(C)O[Si](C)(C)C
GHS category: 5

CCN(CC)CCN(CCN(CC)CC)n1cc(-c2ccc(Cl)cc2)c2cc(C)ccc21
GHS category: 4

CC(C)(C)c1ccc(OP(=O)(Oc2ccccc2)Oc2ccccc2)cc1
GHS category: 5

CCCCCCCCCCCCCCCC(=O)O[C@@H]1C[C@@H](C(=O)O)N(C(=O)CCCCCCCCCCCCCCC)C1
GHS category: 5

C=CCSc1nc2ccc(Cc3ccccc3)cc2[nH]1
GHS category: 5

CCc1cccc(CC)c1NC(=O)c1sc(N)nc1C
GHS category: 4

CC(C)(C)CNc1nnc(-c2ccccc2)c2ccccc12
GHS category: 5

CC(CC=O)c1ccccc1 (stereo unspecified)
GHS category: 5

NC(N)=NCc1ccc2c(c1)OCCO2
GHS category: 5

CC(C)(C)OOC(C)(C)c1ccc(C(C)(C)OOC(C)(C)C)cc1
GHS category: 5

O=C(O)CCC(CC(=O)O)(C(=O)O)P(=O)(O)O (stereo unspecified)
GHS category: 5

Nc1c(OCCOC(=O)Oc2ccccc2)cc(O)c2c1C(=O)c1ccccc1C2=O
GHS category: 5

N#Cc1cccc(C2=C3C(=O)NC(c4cccc(C#N)c4)=C3C(=O)N2)c1
GHS category: 5

O=C(O)c1ccccc1C(=O)O
GHS category: 5

Cc1nc(N2CCOCC2)sc1C(=O)Nc1ccccc1
GHS category: 4

C[C@@H]1CC[C@@]2(OC1)O[C@H]1[C@@H](O)[C@H]3[C@@H]4CC[C@H]5C[C@@H](O[C@@H]6O[C@H](CO)[C@H](O[C@@H]7O[C@H](CO)[C@@H](O)[C@H](O[C@@H]8OC[C@@H](O)[C@H](O)[C@H]8O)[C@H]7O[C@@H]7O[C@H](CO)[C@@H](O)[C@H](O[C@@H]8O[C@H](CO)[C@@H](O)[C@H](O)[C@H]8O)[C@H]7O)[C@H](O)[C@H]6O)[C@H](O)C[C@]5(C)[C@H]4CC[C@]3(C)[C@H]1[C@@H]2C
GHS category: 3

CC(C#N)c1cccc(C(=O)c2ccccc2)c1 (stereo unspecified)
GHS category: 4

CSCC[C@H](NC(=O)[C@H](Cc1c[nH]c2ccccc12)NC(=O)CCNC(=O)OC(C)(C)C)C(=O)N[C@@H](CC(=O)O)C(=O)N[C@@H](Cc1ccccc1)C(N)=O
GHS category: 3

CCCc1nc2ccnn2c(NCCN2CCOCC2)c1Cc1ccc(-c2ccccc2-c2nn[nH]n2)cc1
GHS category: 4

COCOC1CCCCCCCCCCC1
GHS category: 5

CC(C)CCCCCC(=O)NCCCCCC(=O)O
GHS category: 5

CN(C)CCOc1nn(-c2cccc(C(F)(F)F)c2)c2ncccc12
GHS category: 4

O=[N+]([O-])c1ccc(C(O)C(CO)N=Cc2ccc(N(CCCl)CCCl)cc2)cc1 (stereo unspecified)
GHS category: 5

CCCCCCCCNC(=O)c1cnc2cccc(C)n2c1=O
GHS category: 3

O=C1c2ccccc2OC1c1ccccc1 (stereo unspecified)
GHS category: 5

CCC(C(=O)NC(N)=O)c1ccccc1 (stereo unspecified)
GHS category: 5

CCN(CCCCCCOC(=O)c1ccc(OC)c(OC)c1)C1CCc2ccccc2C1 (stereo unspecified)
GHS category: 5

CCCC(=O)N(C)C(=O)Oc1cccc2c1OCO2
GHS category: 4

CCO[Si](OCC)(OCC)N(CC)CC
GHS category: 4

C=CCCCCCCCCC(OCC=C(C)CCC=C(C)C)OCC=C(C)CCC=C(C)C (stereo unspecified)
GHS category: 5

CCC(=O)C=CC1C(C)=CCCC1(C)C (stereo unspecified)
GHS category: 5

C=C(C)C(=O)OCCOC(=O)Oc1ccc(C(C)(C)c2ccc(OC(=O)OCCOC(=O)C(=C)C)cc2)cc1
GHS category: 5

C=C(C)C(=O)O[Si](C(C)C)(C(C)C)C(C)C
GHS category: 5

Cc1nc2cc(Cl)ccc2o1
GHS category: 4

O=C(OCCOCCO)c1cc(O)ccc1Nc1ccc(O)c(C(F)(F)F)c1
GHS category: 4

c1ccc2oc(C3(Cn4cncn4)OCCCO3)cc2c1
GHS category: 4

CCN(CC)CCOC(=O)c1ccc(NC(=O)C(C)(C)Oc2ccccc2Cl)cc1
GHS category: 5

CCOCOC1CCCCCCCCCCC1
GHS category: 5

CNc1ncnc2c1ncn2Cc1ccccc1F
GHS category: 4

OC1c2ccccc2CCc2ccncc21 (stereo unspecified)
GHS category: 5

CCOC(=O)CNc1nc(Cl)nc(NC(C)C)n1
GHS category: 5

CCCCC(=O)N(Cc1ccc(-c2ccccc2-c2nn[nH]n2)cc1)[C@H](C(=O)OCc1ccccc1)C(C)C
GHS category: 4

Oc1ccc2c(c1)CCN(c1ccccc1)C2c1ccc(F)cc1 (stereo unspecified)
GHS category: 4

C=COCCOCCOC(=O)C=C
GHS category: 4

CCC(C)CCC(C)(CC)OC(C)=O (stereo unspecified)
GHS category: 5

CCCN(CCC)C(=O)C(CCC(=O)OCCOCCOC(=O)Cc1c(C)n(C(=O)c2ccc(Cl)cc2)c2ccc(OC)cc12)NC(=O)c1ccccc1 (stereo unspecified)
GHS category: 4

CCCCn1c(C)c(CC(=O)O)c2c1CC(C)(C)CC2=O
GHS category: 5

O=C(O)c1cc(C(=O)O)cc([N+](=O)[O-])c1
GHS category: 5

O=S(=O)(O)CCO
GHS category: 5

COc1cc(NC(=O)c2cc3ccccc3cc2O)c(OC)cc1Cl
GHS category: 5

C=CC(C)(CCC=C(C)C)OC(=O)C(C)C (stereo unspecified)
GHS category: 5

CCCC(=NOCC(C)Oc1ccc(Cl)cc1)C1=C(O)CC(C2CCCSC2)CC1=O (stereo unspecified)
GHS category: 5

CC(C)(CO)c1cc(Cl)nnc1Cl
GHS category: 4

O=C1NC(=O)C(c2ccc(O)cc2)(c2ccc(O)c(Cl)c2)N1 (stereo unspecified)
GHS category: 5

COc1ccc(C(=O)N2CCN(c3ccc4c(c3)CCC(=O)N4)CC2)cc1OC
GHS category: 5

CNCC1CCC(N)C(OC2C(N)CC(N)C(OC3OCC(C)(O)C(NC)C3O)C2O)O1 (stereo unspecified)
GHS category: 5

CC(C)(C)c1ccc2oc(-c3ccc(C=Cc4ccc(-c5ccccc5)cc4)cc3)nc2c1
GHS category: 5

COC(=O)CC#N
GHS category: 5

CCOc1ccc(N(CCCC(=O)O)C(=O)c2ccc(Cl)cc2)cc1
GHS category: 5

Cc1ccc(Nc2nc(Nc3ccc(C)cc3)c(N=Nc3ccccc3C(F)(F)F)c(C)c2C#N)cc1
GHS category: 5

CC(C)(C)c1ccc(OCC2CO2)cc1 (stereo unspecified)
GHS category: 5

O=C(Nc1ccc(Cl)c(Cl)c1)c1cc(Cl)cc(-c2ccccc2)c1O
GHS category: 4

CCC(CC)CC1(C(=O)O)CCCCC1
GHS category: 4

COc1ccc(Br)cc1
GHS category: 4

CCCCCCCCCCCCCC=O
GHS category: 5

CCOC(=O)C(=O)Nc1nc(-c2ccccc2)cs1
GHS category: 5

Fc1ccc(N/C(=N/C2CCCCC2)c2ccccc2)cc1
GHS category: 5

Cc1ccc(C(=O)Oc2ccc(C(O)CNC(C)(C)C)cc2OC(=O)c2ccc(C)cc2)cc1 (stereo unspecified)
GHS category: 5

CCN(C(=O)CCCCSc1nnnn1C)C1CCCCC1
GHS category: 4

CCNC(=O)[C@@H]1CCCN1C(=O)[C@H](CCCNC(=N)N)NC(=O)[C@H](CC(C)C)NC(=O)[C@@H](CC(C)C)NC(=O)[C@H](Cc1ccc(O)cc1)NC(=O)[C@H](CO)NC(=O)[C@H](Cc1c[nH]c2ccccc12)NC(=O)[C@H](Cc1cnc[nH]1)NC(=O)[C@@H]1CCC(=O)N1
GHS category: 5

COc1ccc2c(c1)c(CC(=O)NC1CCCC1)c(C)n2C(=O)c1ccc(Cl)cc1
GHS category: 5

CC(CCC(=O)NCCS(=O)(=O)O)C1CCC2C3C(O)CC4CC(O)CCC4(C)C3CCC12C (stereo unspecified)
GHS category: 5

CN(C)CCn1nnnc1SCC1=C(C(=O)O)N2C(=O)[C@@H](NC(=O)Cc3csc(N)n3)[C@H]2SC1
GHS category: 5

CC(C=O)C(=O)c1ccc(C2CCCCC2)cc1 (stereo unspecified)
GHS category: 4

Cc1cc(C(C)(CC(=O)OCCOC(=O)CC(C)(c2ccc(O)c(C(C)(C)C)c2)c2ccc(O)c(C(C)(C)C)c2)c2ccc(O)c(C(C)(C)C)c2)cc(C(C)(C)C)c1O (stereo unspecified)
GHS category: 5

CCCCCCCCCCCCOC(=O)C=CC(=O)OCCCCCCCCCCCC
GHS category: 5

CC1(C)CC[C@@]2(C(=O)O)CC[C@@]3(C)C(=CC[C@H]4[C@]5(C)CC[C@@H](O)C(C)(C)[C@H]5CC[C@@]43C)[C@H]2C1 (racemic)
GHS category: 5

CCCCCOC(=O)CCCC
GHS category: 5

CCOC(=O)C(F)F
GHS category: 5

CC1=CC(=NNc2ccc(N)cc2)C=C(C)C1=O
GHS category: 5
